Assay results published in patent US20200071326A1, “TAM KINASE INHIBITORS” (Syros Pharmaceuticals, Inc., priority 2017, published 2020).
Where a name gives a salt, the structure may show the parent alone.

Experiments:
[1] = target: T1, AXL (Homo sapiens, UniProt P30530); assay: IMAP fluorescence polarization kinase assay, AXL; type: biochemical; details: ATP 24.7 μM, enzyme 2.5 nM, 240 minutes, read-out: AXL inhibitory constant (Ki)
T1 sequence (P30530 26-894): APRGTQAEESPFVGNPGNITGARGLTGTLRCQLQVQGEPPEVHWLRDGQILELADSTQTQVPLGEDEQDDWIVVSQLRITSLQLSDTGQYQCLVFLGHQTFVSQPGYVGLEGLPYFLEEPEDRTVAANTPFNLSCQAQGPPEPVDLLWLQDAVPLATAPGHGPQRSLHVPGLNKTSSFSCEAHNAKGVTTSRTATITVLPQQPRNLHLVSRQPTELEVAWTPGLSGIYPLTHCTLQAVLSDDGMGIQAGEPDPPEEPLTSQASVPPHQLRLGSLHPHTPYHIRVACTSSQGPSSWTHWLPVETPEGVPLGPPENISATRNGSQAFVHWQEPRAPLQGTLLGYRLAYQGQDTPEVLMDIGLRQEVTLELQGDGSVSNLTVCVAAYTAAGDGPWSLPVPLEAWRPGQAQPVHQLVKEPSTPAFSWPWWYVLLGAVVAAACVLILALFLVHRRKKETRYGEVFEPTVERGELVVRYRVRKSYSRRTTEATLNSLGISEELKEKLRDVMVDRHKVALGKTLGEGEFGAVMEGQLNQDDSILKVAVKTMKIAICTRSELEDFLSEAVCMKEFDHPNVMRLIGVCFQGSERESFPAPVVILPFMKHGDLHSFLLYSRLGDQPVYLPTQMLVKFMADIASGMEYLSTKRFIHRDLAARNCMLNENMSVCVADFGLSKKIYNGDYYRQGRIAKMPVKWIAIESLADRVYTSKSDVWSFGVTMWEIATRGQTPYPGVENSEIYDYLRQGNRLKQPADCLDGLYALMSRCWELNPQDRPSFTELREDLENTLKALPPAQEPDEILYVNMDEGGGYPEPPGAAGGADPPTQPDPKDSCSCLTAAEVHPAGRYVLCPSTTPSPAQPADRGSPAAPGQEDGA
Procedure: (§1) Activities of compounds against each of TYRO3, AXL, and MERTK as well as against FLT3, were determined using an immobilized metal ion affinity-based fluorescence polarization (“IMAP”) assay. A fluorescently-labeled substrate peptide was phosphorylated in the kinase reaction, after which a binding solution containing large trivalent metal-based nanoparticles was added and the phosphorylated substrate binds to these beads. This reduces the rotational speed of the substrate which is then detected using fluorescence polarization as a read-out.
(§2) The substrates used for each enzyme are as follows: AXL: 5F1-KKKKEEIYFFFG-NH2(SEQ ID NO:1); FLT3: 5F1-KKKKEEIYFFF-NH2 (SEQ ID NO:2); MERTK: 5F1-EFPIYDFLPAKKK-NH2 (SEQ ID NO:3); and TYRO3: 5F1-EFPIYDFLPAKKK-NH2 (SEQ ID NO:4).
(§3) This assay was performed in a 384-well, polystyrene microplate in a final volume of 8 μl. Substrate (final concentration=400 nM), ATP (final concentrations=24.7μM for AXL; 2.74 μM for FLT3; 2.69 μM for MERTK; and 54.0 μM for TYRO3), compounds and enzyme (final concentrations=2.5 nM for AXL, FLT3 and TYRO3; 1.5 nM for MERTK) were pipetted in this order into the appropriate reaction buffer (AXL: 50 mM HEPES, pH 8.0, 1 mM DTT, 10 mM MgCl2, 0.01% BRU35, 0.01% Triton X-100; FLT3: 50 mM HEPES, pH 8.0, 1 mM DTT, 10 mM MgCl2, 0.01% Triton X-100, 0.01% NP40; MERTK/TYRO3: 50 mM HEPES, pH 8.0, 1 mM DTT, 10 mM MgCl2, 0.01% Triton X-100) and incubated at room temperature for varying times (AXL, FLT3 and MERTK: 240 minutes; TYRO3: 60 minutes). IMAP binding solution was then dispensed, the plate incubated for 60 minutes at room temperature and the fluorescence polarization measured. Data were analyzed using XLfit.

[2] = target: T2, FLT3 (Homo sapiens, UniProt P36888); assay: IMAP fluorescence polarization kinase assay, FLT3; type: biochemical; details: ATP 2.74 μM, enzyme 2.5 nM, 240 minutes, read-out: FLT3 inhibitory constant (Ki)
T2 sequence (P36888 27-993): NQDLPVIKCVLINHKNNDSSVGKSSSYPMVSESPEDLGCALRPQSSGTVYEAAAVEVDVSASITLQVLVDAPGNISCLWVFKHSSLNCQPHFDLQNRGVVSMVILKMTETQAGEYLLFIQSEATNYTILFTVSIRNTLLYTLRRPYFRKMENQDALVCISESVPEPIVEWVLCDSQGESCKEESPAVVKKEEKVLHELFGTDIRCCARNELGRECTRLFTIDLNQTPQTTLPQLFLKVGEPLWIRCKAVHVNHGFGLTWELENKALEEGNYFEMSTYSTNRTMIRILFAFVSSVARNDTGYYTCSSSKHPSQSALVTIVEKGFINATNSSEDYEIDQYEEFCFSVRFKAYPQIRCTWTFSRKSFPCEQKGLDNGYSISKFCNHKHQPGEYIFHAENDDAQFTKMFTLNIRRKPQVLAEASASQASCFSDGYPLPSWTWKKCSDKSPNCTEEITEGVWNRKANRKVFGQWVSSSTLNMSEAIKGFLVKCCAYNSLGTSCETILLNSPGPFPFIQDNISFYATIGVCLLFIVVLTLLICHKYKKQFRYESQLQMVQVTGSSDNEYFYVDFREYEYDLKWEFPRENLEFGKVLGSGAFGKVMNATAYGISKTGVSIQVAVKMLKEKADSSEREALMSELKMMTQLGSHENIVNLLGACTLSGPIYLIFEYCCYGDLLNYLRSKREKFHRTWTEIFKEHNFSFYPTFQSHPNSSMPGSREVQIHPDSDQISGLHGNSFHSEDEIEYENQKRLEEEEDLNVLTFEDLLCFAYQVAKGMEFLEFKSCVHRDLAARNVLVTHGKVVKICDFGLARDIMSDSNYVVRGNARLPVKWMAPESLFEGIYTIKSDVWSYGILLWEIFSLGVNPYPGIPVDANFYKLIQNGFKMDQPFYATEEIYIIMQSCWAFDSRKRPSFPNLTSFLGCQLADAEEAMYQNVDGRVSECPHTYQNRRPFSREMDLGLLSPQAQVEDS
Procedure: as §1, §2, §3

`CC[C@H](C)c1cc2c(N[C@H]3CC[C@H](N)CC3)c(C(=O)Nc3ccc(F)cc3)cnc2[nH]1` [Compound 156] gave a Ki [1] of 1000 to 10000 nM and a Ki [2] of 100 to 1000 nM.

`CCCc1cc2c(N[C@H]3CC[C@H](N)CC3)c(-c3ccnc(N4CCCC4)n3)cnc2[nH]1` [Compound 118, (1r,4r)-N1-(2-propyl-5-(2-(pyrrolidin-1-yl)pyrimidin-4-yl)-1H-pyrrolo[2,3-b]pyridine-4-yl)cyclohexane-1,4-diamine hydrochloride] showed a Ki [1] of 100 to 1000 nM and a Ki [2] of less than 100 nM.

`CCCc1cc2c(N[C@H]3CC[C@H](N)CC3)c(C(=O)NC3CCOCC3)cnc2[nH]1` [Compound 124] was tested, and the Ki [1] was 100 to 1000 nM and the Ki [2] was 100 to 1000 nM.

Compound `CC(C)c1cc2c(N[C@H]3CC[C@H](N)CC3)c(C(=O)NCc3ccc(-n4ccnc4)cc3)cnc2[nH]1` [Compound 129] has a Ki [1] of 100 to 1000 nM and a Ki [2] of less than 100 nM.

For `CCC(C)c1cc2c(N[C@H]3CC[C@H](O)CC3)c(C(=O)NC3CCN(C4=NCCCN4)CC3)cnc2[nH]1` (stereo partly shown) [Compound 158], the Ki [1] was 1000 to 10000 nM and the Ki [2] was 100 to 1000 nM.

`CCCc1cc2c(N[C@H]3CC[C@H](N)CC3)c(-c3cc(N)ncn3)cnc2[nH]1` [Compound 116] gave a Ki [1] of 100 to 1000 nM and a Ki [2] of less than 100 nM.

Work on `CCCc1cc2c(N[C@H]3CC[C@H](O)CC3)c(C(=O)Nc3ccc(F)cc3)cnc2[nH]1` [Compound 101] yielded a Ki [1] greater than 10000 nM and a Ki [2] of 100 to 1000 nM.

Compound `CCCC(OC)c1cc2c(N[C@H]3CC[C@H](N)CC3)c(C(=O)Nc3ccc(F)cc3)cnc2[nH]1` (stereo partly shown) [Compound 153] has a Ki [1] greater than 10000 nM and a Ki [2] greater than 10000 nM.

With `CCCc1cc2c(N[C@H]3CC[C@H](O)CC3)c(-c3ccc(CN4CCOCC4)cn3)cnc2[nH]1` [Compound 105] the Ki [1] was 100 to 1000 nM and the Ki [2] was less than 100 nM.

In the case of `CCCc1cc2c(N[C@H]3CC[C@H](O)CC3)c(-c3ccc(CN4CCCC4)cn3)cnc2[nH]1` [Compound 125], the Ki [1] is reported as 100 to 1000 nM and the Ki [2] is reported as less than 100 nM.

Work on `N[C@H]1CC[C@H](Nc2c(C(=O)Nc3ccc(F)cc3)cnc3[nH]c(C(F)(F)F)cc23)CC1` [Compound 135, 4-(((1r,4r)-4-aminocyclohexyl)amino)-N-(4-fluorophenyl)-2-(trifluoromethyl)-1H-pyrrolo[2,3-b]pyridine-5-carboxamide hydrochloride] yielded a Ki [1] of 100 to 1000 nM and a Ki [2] of 100 to 1000 nM.

`CCCC(O)c1cc2c(N[C@H]3CC[C@H](N)CC3)c(Br)cnc2[nH]1` (stereo partly shown) [Compound 137] showed a Ki [1] of 1000 to 10000 nM and a Ki [2] of 1000 to 10000 nM.

`CCOC(C)c1cc2c(N[C@H]3CC[C@H](N)CC3)c(C(=O)Nc3ccc(F)cc3)cnc2[nH]1` (stereo partly shown) [Compound 152] gave a Ki [1] greater than 10000 nM and a Ki [2] greater than 10000 nM.

With `CCC[C@@H](C)c1cc2c(N[C@H]3CC[C@H](N)CC3)c(C(=O)Nc3ccc(F)cc3)cnc2[nH]1` [Compound 150] the Ki [1] was 1000 to 10000 nM and the Ki [2] was 1000 to 10000 nM.

Compound `CCc1cc2c(N[C@H]3CC[C@H](N)CC3)c(C(=O)Nc3ccc(F)cc3)cnc2[nH]1` [Compound 136] has a Ki [1] of 100 to 1000 nM and a Ki [2] of less than 100 nM.

`CCCc1cc2c(N[C@H]3CC[C@H](N)CC3)c(C(=O)NC3CCN(c4ncccn4)CC3)cnc2[nH]1` [Compound 141] showed a Ki [1] of 100 to 1000 nM and a Ki [2] of 100 to 1000 nM.

In the case of `CCCc1cc2c(N[C@H]3CC[C@H](O)CC3)c(-c3ccc(CN4CCOCC4)cc3)cnc2[nH]1` [Compound 106, (1r,4r)-4-((5-(4-(morpholinomethyl)phenyl)-2-propyl-1H-pyrrolo[2,3-b]pyridin-4-yl)amino)cyclohexanol hydrochloride], the Ki [1] is reported as greater than 10000 nM and the Ki [2] is reported as 100 to 1000 nM.

`CCCc1cc2c(N[C@H]3CC[C@H](N)CC3)c(-c3cc(OC)ncn3)cnc2[nH]1` [Compound 122] was tested, and the Ki [1] was 100 to 1000 nM and the Ki [2] was less than 100 nM.

With `CCCc1cc2c(N[C@H]3CC[C@H](N)CC3)c(C(=O)NCc3ccc(-n4ccnc4)cc3)cnc2[nH]1` [Compound 121] the Ki [1] was 100 to 1000 nM and the Ki [2] was less than 100 nM.

`CCCc1cc2c(N[C@H]3CC[C@H](O)CC3)c(-c3cnn(CCN(C)C)c3)cnc2[nH]1` [Compound 107] showed a Ki [1] of 1000 to 10000 nM and a Ki [2] of 100 to 1000 nM.

`CCCc1cc2c(N[C@H]3CC[C@H](N)CC3)c(-c3cc(NC)ncn3)cnc2[nH]1` [Compound 111, (1r,4r)-N^1-(5-(6-(methylamino)pyrimidin-4-yl)-2-propyl-1H-pyrrolo[2,3-b]pyridine-4-yl)cyclohexane-1,4-diamine hydrochloride] gave a Ki [1] of 100 to 1000 nM and a Ki [2] of less than 100 nM.

For `CCC[C@H](C)c1cc2c(N[C@H]3CC[C@H](N)CC3)c(C(=O)Nc3ccc(F)cc3)cnc2[nH]1` [Compound 149], the Ki [1] was 1000 to 10000 nM and the Ki [2] was 1000 to 10000 nM.

Work on `C#Cc1cc2c(N[C@H]3CC[C@H](N)CC3)c(C(=O)Nc3ccc(F)cc3)cnc2[nH]1` [Compound 128, [4-1(4-aminocyclohexyl)amino]-2-ethynyl-N-(4-fluorophenyl)-1H-pyrrolo[2,3-b]pyridine-5-carboxamide] yielded a Ki [1] of 1000 to 10000 nM and a Ki [2] of less than 100 nM.

Work on `CCc1cc2c(N[C@H]3CC[C@H](N)CC3)c(C(=O)NCc3ccc(-n4ccnc4)cc3)cnc2[nH]1` [Compound 119, N-(4-(1H-imidazol-1-yl)benzyl)-4-(((1r,4r)-4-aminocyclohexyl)amino)-2-ethyl-1H-pyrrolo[2,3-b]pyridine-5-carboxamide] yielded a Ki [1] of 100 to 1000 nM and a Ki [2] of less than 100 nM.

Work on `CCCc1cc2c(N[C@H]3CC[C@H](N)CC3)c(-c3ccc(COC(C)C)cn3)cnc2[nH]1` [Compound 130] yielded a Ki [1] of 1000 to 10000 nM and a Ki [2] of less than 100 nM.

`CCCC(O)c1cc2c(N[C@H]3CC[C@H](N)CC3)c(C(=O)Nc3ccc(F)cc3)cnc2[nH]1` (stereo partly shown) [Compound 154] showed a Ki [1] greater than 10000 nM and a Ki [2] greater than 10000 nM.

`CCc1cc2c(N[C@H]3CC[C@H](N)CC3)c(C(=O)NC3CCN(c4ncccn4)CC3)cnc2[nH]1` [Compound 132] gave a Ki [1] of 100 to 1000 nM and a Ki [2] of less than 100 nM.

Work on `CCCc1cc2c(N[C@H]3CC[C@H](N)CC3)c(-c3cc(NC(C)C)ncn3)cnc2[nH]1` [Compound 112] yielded a Ki [1] of 100 to 1000 nM and a Ki [2] of less than 100 nM.

Work on `Cc1cc2c(N[C@H]3CC[C@H](N)CC3)c(C(=O)Nc3ccc(F)cc3)cnc2[nH]1` [Compound 103] yielded a Ki [1] of 100 to 1000 nM and a Ki [2] of less than 100 nM.
